Experimental data reported in ChEMBL document CHEMBL1201862, “PubChem BioAssay data set” (2004).
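1) Cells in 96-well plates. 2) Compound, 48 h, 5 concentrations. 3) Linear interpolation between surrounding doses. 4) Unreached endpoint = highest concentration. The concentration for 50% growth inhibition is given as GI50.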 Activity calls are given as the source filed them. Cut-off read from the data, not from the text of the source: active = GI50 up to about 1.1 µM and inactive = higher.

How the values were obtained:
Assay in all cases: DTP human tumour cell line panel, 48 h
[1] = tested on: 786-0
[2] = tested on: A498
[3] = tested on: A549
[4] = tested on: ACHN
[5] = tested on: BT-549
[6] = tested on: CAKI-1
[7] = tested on: COLO 205
[8] = tested on: DU-145
[9] = tested on: EKVX
[10] = tested on: HCC 2998
[11] = tested on: HCT-116
[12] = tested on: HCT-15
[13] = tested on: HL-60
[14] = tested on: HOP-62
[15] = tested on: HOP-92
[16] = tested on: HT-29
[17] = tested on: Hs-578T
[18] = tested on: IGROV-1
[19] = tested on: K562
[20] = tested on: KM12
[21] = tested on: LOX IMVI
[22] = tested on: M14
[23] = tested on: MCF7
[24] = tested on: MDA-MB-231
[25] = tested on: MDA-MB-435
[26] = tested on: MOLT-4
[27] = tested on: Malme-3M
[28] = tested on: NCI-H226
[29] = tested on: NCI-H23
[30] = tested on: NCI-H460
[31] = tested on: NCI-H522
[32] = tested on: NCI/ADR-RES
[33] = tested on: OVCAR-3
[34] = tested on: OVCAR-4
[35] = tested on: OVCAR-5
[36] = tested on: OVCAR-8
[37] = tested on: PC-3
[38] = tested on: RPMI-8226
[39] = tested on: RXF 393
[40] = tested on: SF-268
[41] = tested on: SF-295
[42] = tested on: SF-539
[43] = tested on: SK-MEL-28
[44] = tested on: SK-MEL-2
[45] = tested on: SK-MEL-5
[46] = tested on: SK-OV-3
[47] = tested on: SN12C
[48] = tested on: SNB-19
[49] = tested on: SNB-75
[50] = tested on: SR
[51] = tested on: SW-620
[52] = tested on: T47D
[53] = tested on: TK-10
[54] = tested on: U-251
[55] = tested on: UACC-257
[56] = tested on: UACC-62
[57] = tested on: UO-31
[58] = tested on: CCRF-CEM
[59] = tested on: MDA-N

CC(=O)C1=C(C)N(c2ccc(C)cc2)C2(O)C=CC(O)=C3C(=O)c4ccccc4C(=O)C312 (stereo not drawn)
GI50 [1]: 9.14 µM (inactive) | GI50 [2]: 12.9 µM (inactive) | GI50 [3]: 18.6 µM (inactive) | GI50 [4]: 11.8 µM (inactive) | GI50 [5]: 11 µM (inactive) | GI50 [6]: 13.5 µM (inactive) | GI50 [7]: 5.05 µM (inactive) | GI50 [8]: 15.4 µM (inactive) | GI50 [9]: 19.3 µM (inactive) | GI50 [10]: 16.8 µM (inactive) | GI50 [11]: 5.52 µM (inactive) | GI50 [12]: 4.49 µM | GI50 [13]: 7.76 µM (inactive) | GI50 [14]: 26.9 µM (inactive) | GI50 [15]: 55.1 µM (inactive) | GI50 [16]: 3.89 µM (inactive) | GI50 [17]: 24.2 µM (inactive) | GI50 [18]: 7.38 µM (inactive) | GI50 [19]: 31.3 µM (inactive) | GI50 [20]: 7.41 µM (inactive) | GI50 [21]: 6.95 µM (inactive) | GI50 [22]: 18.6 µM (inactive) | GI50 [23]: 7.71 µM (inactive) | GI50 [24]: 20.7 µM (inactive) | GI50 [25]: 2.33 µM (inactive) | GI50 [26]: 3.05 µM (inactive) | GI50 [27]: 1.91 µM (inactive) | GI50 [28]: 22.8 µM (inactive) | GI50 [29]: 21.1 µM (inactive) | GI50 [30]: 7.23 µM (inactive) | GI50 [31]: 13.7 µM (inactive) | GI50 [32]: 3.78 µM (inactive) | GI50 [33]: 3.91 µM (inactive) | GI50 [34]: 12.6 µM (inactive) | GI50 [35]: 23.7 µM (inactive) | GI50 [36]: 16.1 µM (inactive) | GI50 [37]: 16.4 µM (inactive) | GI50 [38]: 3.27 µM (inactive) | GI50 [39]: 9.04 µM (inactive) | GI50 [40]: 15.9 µM (inactive) | GI50 [41]: 13.7 µM (inactive) | GI50 [42]: 23.8 µM (inactive) | GI50 [43]: 13.1 µM (inactive) | GI50 [44]: 7.36 µM (inactive) | GI50 [45]: 7.4 µM (inactive) | GI50 [46]: > 100 µM (inactive) | GI50 [47]: 13.6 µM (inactive) | GI50 [48]: 22.6 µM (inactive) | GI50 [49]: 19.4 µM (inactive) | GI50 [50]: 36.9 µM (inactive) | GI50 [51]: 4.81 µM (inactive) | GI50 [52]: 9.95 µM (inactive) | GI50 [53]: 23.4 µM (inactive) | GI50 [54]: 18.5 µM (inactive) | GI50 [55]: 10.6 µM (inactive) | GI50 [56]: 10.5 µM (inactive) | GI50 [57]: 14.1 µM (inactive)

COc1ccccc1N1C(=O)/C(=C\c2cccc(Oc3ccccc3)c2)S(=O)(=O)C1c1ccccc1 (stereo not drawn)
GI50 [1]: 49.4 µM (inactive) | GI50 [2]: 49.8 µM (inactive) | GI50 [3]: > 100 µM (inactive) | GI50 [4]: > 100 µM (inactive) | GI50 [5]: 26.6 µM (inactive) | GI50 [6]: > 100 µM (inactive) | GI50 [58]: 33.9 µM (inactive) | GI50 [7]: 23.1 µM (inactive) | GI50 [8]: 55.6 µM (inactive) | GI50 [9]: 10.5 µM (inactive) | GI50 [10]: > 100 µM (inactive) | GI50 [11]: 23.8 µM (inactive) | GI50 [12]: 32.4 µM | GI50 [14]: > 100 µM (inactive) | GI50 [15]: 14.5 µM (inactive) | GI50 [19]: 17.3 µM (inactive) | GI50 [20]: 28.2 µM (inactive) | GI50 [21]: 40.1 µM (inactive) | GI50 [22]: 50 µM (inactive) | GI50 [23]: 27.4 µM (inactive) | GI50 [24]: > 100 µM (inactive) | GI50 [25]: 30.8 µM (inactive) | GI50 [59]: 36.4 µM (inactive) | GI50 [26]: 4.92 µM (inactive) | GI50 [27]: 69.3 µM (inactive) | GI50 [28]: > 100 µM (inactive) | GI50 [29]: 19 µM (inactive) | GI50 [30]: 53.7 µM (inactive) | GI50 [31]: 22.5 µM (inactive) | GI50 [32]: 2.92 µM (inactive) | GI50 [33]: 38.7 µM (inactive) | GI50 [34]: 9.79 µM (inactive) | GI50 [35]: 89.9 µM (inactive) | GI50 [37]: 41.4 µM (inactive) | GI50 [39]: > 100 µM (inactive) | GI50 [41]: 81.8 µM (inactive) | GI50 [43]: 71.1 µM (inactive) | GI50 [44]: 21.4 µM (inactive) | GI50 [45]: 21.5 µM (inactive) | GI50 [46]: > 100 µM (inactive) | GI50 [47]: > 100 µM (inactive) | GI50 [48]: 50 µM (inactive) | GI50 [50]: 16.7 µM (inactive) | GI50 [51]: 49.3 µM (inactive) | GI50 [52]: 22.3 µM (inactive) | GI50 [53]: 58.7 µM (inactive) | GI50 [54]: 53.6 µM (inactive) | GI50 [55]: 21.7 µM (inactive) | GI50 [56]: 17.8 µM (inactive) | GI50 [57]: 46.8 µM (inactive)

CC(C)=CCCC1(Sc2ccccc2)C(=O)OCC1C=C(C)C (stereo not drawn)
GI50 [1]: 17.7 µM (inactive) | GI50 [2]: 52.4 µM (inactive) | GI50 [3]: 13.5 µM (inactive) | GI50 [4]: 32.5 µM (inactive) | GI50 [5]: 36.3 µM (inactive) | GI50 [6]: 23.2 µM (inactive) | GI50 [58]: 32.4 µM (inactive) | GI50 [7]: 23.2 µM (inactive) | GI50 [9]: 19 µM (inactive) | GI50 [10]: 29.8 µM (inactive) | GI50 [11]: 11.5 µM (inactive) | GI50 [12]: 29.9 µM | GI50 [14]: 48.9 µM (inactive) | GI50 [18]: 16.8 µM (inactive) | GI50 [20]: 27 µM (inactive) | GI50 [21]: 16.5 µM (inactive) | GI50 [22]: 17.3 µM (inactive) | GI50 [23]: 38.9 µM (inactive) | GI50 [24]: 47.2 µM (inactive) | GI50 [25]: 32.1 µM (inactive) | GI50 [59]: 19.9 µM (inactive) | GI50 [26]: 7.31 µM (inactive) | GI50 [27]: 17.5 µM (inactive) | GI50 [28]: 24.3 µM (inactive) | GI50 [29]: 31.3 µM (inactive) | GI50 [30]: 18.3 µM (inactive) | GI50 [31]: 23.2 µM (inactive) | GI50 [32]: 21.2 µM (inactive) | GI50 [33]: 17.3 µM (inactive) | GI50 [34]: 29 µM (inactive) | GI50 [35]: 21.3 µM (inactive) | GI50 [36]: 30.5 µM (inactive) | GI50 [37]: 31.8 µM (inactive) | GI50 [38]: 21.5 µM (inactive) | GI50 [39]: 17.1 µM (inactive) | GI50 [40]: 38.6 µM (inactive) | GI50 [41]: 36.7 µM (inactive) | GI50 [42]: 20.6 µM (inactive) | GI50 [43]: 47.3 µM (inactive) | GI50 [44]: 18.5 µM (inactive) | GI50 [45]: 20.3 µM (inactive) | GI50 [46]: 21.1 µM (inactive) | GI50 [47]: 15 µM (inactive) | GI50 [48]: 21.5 µM (inactive) | GI50 [49]: 36.6 µM (inactive) | GI50 [51]: 61.9 µM (inactive) | GI50 [52]: 22.4 µM (inactive) | GI50 [53]: 34.8 µM (inactive) | GI50 [54]: 27.7 µM (inactive) | GI50 [55]: 17.5 µM (inactive) | GI50 [57]: 22.6 µM (inactive)
